Where two headings read alike, the source gives them in different places.
Tests used:
Human sEH (HsEH) = target: T1, Human sEH (HsEH) (Homo sapiens, UniProt P34913); assay: Inhibition of recombinant human sEH (HsEH); type: biochemical; conditions: Table 1; HsEH 0.26 μM
T1 sequence (P34913 1-555): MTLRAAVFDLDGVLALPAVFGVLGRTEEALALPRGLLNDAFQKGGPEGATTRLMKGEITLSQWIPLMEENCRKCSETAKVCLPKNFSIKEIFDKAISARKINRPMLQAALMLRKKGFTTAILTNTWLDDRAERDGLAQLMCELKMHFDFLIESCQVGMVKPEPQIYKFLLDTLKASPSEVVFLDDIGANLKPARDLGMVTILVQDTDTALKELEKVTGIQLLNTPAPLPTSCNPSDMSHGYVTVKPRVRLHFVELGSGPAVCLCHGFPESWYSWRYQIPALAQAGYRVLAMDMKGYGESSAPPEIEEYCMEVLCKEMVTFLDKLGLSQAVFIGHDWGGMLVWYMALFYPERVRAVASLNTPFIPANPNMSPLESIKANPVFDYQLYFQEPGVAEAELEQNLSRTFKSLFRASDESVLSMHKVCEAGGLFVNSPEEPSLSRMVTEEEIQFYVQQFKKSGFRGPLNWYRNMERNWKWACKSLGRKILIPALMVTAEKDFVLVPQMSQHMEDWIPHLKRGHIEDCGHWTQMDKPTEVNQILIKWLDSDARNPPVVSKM

[1] = target: T2, recombinant mouse sEH (MsEH) (Mus musculus, UniProt P34914); assay: Inhibition of recombinant mouse sEH (MsEH); type: biochemical
T2 sequence (P34914 1-554): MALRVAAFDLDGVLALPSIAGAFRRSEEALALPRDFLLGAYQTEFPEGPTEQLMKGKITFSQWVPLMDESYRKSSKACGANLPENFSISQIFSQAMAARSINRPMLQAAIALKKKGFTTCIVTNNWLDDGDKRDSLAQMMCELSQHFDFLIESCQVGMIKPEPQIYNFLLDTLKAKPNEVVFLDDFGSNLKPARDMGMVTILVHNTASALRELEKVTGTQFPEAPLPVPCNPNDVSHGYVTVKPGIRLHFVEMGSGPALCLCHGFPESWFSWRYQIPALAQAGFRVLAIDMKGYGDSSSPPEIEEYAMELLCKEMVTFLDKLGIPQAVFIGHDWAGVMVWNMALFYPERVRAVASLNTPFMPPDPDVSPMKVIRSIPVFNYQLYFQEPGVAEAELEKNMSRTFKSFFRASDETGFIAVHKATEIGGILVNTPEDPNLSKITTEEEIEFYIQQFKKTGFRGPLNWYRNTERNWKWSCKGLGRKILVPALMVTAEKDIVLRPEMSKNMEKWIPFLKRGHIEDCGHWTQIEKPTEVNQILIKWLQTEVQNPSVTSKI

[2] = Table 1, MsEH 0.13 μM, read-out: Mouse sEH IC50

SMILES	IC50 (Human sEH (HsEH)) [nM]	IC50 [1, 2] [nM]	IC50 [1] [nM]
O=C(Nc1ccccc1)NC1CCCCC1 [compound 21]	1390 ± 20	760 ± 20	–
O=C(NC1CCCCCC1)NC1CCCCC1 [compound 22]	100 ± 10	50 ± 100	–
O=C(NC1CCCCC1)NC1CCCC1 [compound 23]	1690 ± 50	100 ± 10	–
O=C(NCCc1ccccc1)NC1CCCCC1 [compound 36]	160 ± 20	60 ± 10	–
O=C(Nc1ccc([N+](=O)[O-])cc1)NC1CCCCC1 [compound 38]	360 ± 20	170 ± 10	–
O=C(NC1CCCCC1)OC1CCCCC1 [compound 42]	130 ± 10	60 ± 10	–
O=C(NCC1CCCCC1)NC1CCCCC1 [compound 57]	160 ± 10	60 ± 10	–
O=C(Nc1cccc2ccccc12)NC1CCCCC1 [compound 59]	480 ± 10	850 ± 20	–
O=C(Nc1ccc(F)cc1)NC1CCCCC1 [compound 60]	430 ± 20	780 ± 20	–
O=C(Nc1ccc(Br)cc1)NC1CCCCC1 [compound 65]	110 ± 10	170 ± 10	–
COc1ccc(NC(=O)NC2CCCCC2)cc1 [compound 67]	230 ± 10	710 ± 40	–
CCCCCCCCNC(=O)OC [compound 72]	480 ± 10	110 ± 10	–
CC(C)(C)c1ccc(NC(=O)NC2CCCCC2)cc1 [compound 75]	230 ± 10	60 ± 10	–
O=C(Nc1ccncc1)NC1CCCCC1 [compound 100]	150 ± 10	70 ± 10	–
CC(C)CNC(=O)NC1CCCCC1 [compound 103]	2200 ± 100	120 ± 10	–
O=C(NCCCc1ccccc1)NC1CCCCC1 [compound 104]	290 ± 10	40 ± 10	–
O=C(NCCCCc1ccccc1)NC1CCCCC1 [compound 105]	580 ± 30	50 ± 10	–
Cc1ccc(NC(=O)NC2CCCCC2)cc1 [compound 108]	170 ± 10	130 ± 10	–
O=C(NC1CCCCC1)Oc1ccc2ccccc2c1 [compound 110]	350 ± 10	–	210 ± 10

SMILES	IC50 (Human sEH (HsEH)) [nM]	IC50 [1, 2] [nM]	IC50 [1] [nM]
N#Cc1ccc(NC(=O)NC2CCCCC2)cc1 [compound 118]	100 ± 10	60 ± 10	–
O=C(NC1CCCCCCCCCCC1)NC1CCCCC1 [compound 119]	100 ± 10	50 ± 10	–
CC(C)(C)OC(=O)NCCNC(=O)NC1CCCCC1 [compound 124]	140 ± 10	50 ± 10	–
CCCCCCCCNC(=O)NCCCCC [compound 125]	720 ± 20	90 ± 10	–
CC(=O)c1ccc(NC(=O)NC2CCCCC2)cc1 [compound 126]	270 ± 20	60 ± 10	–
O=C(Nc1ccc(Oc2ccccc2)cc1)NC1CCCCC1 [compound 140]	100 ± 10	50 ± 10	–
CCCCCCNC(=O)Nc1ccc2ccccc2c1 [compound 143]	570 ± 10	1000 ± 100	–
CCCCCCCCCCNC(=O)Nc1ccccc1 [compound 148]	610 ± 20	210 ± 10	–
CCCCCCCCNC(=O)Nc1ccccc1 [compound 151]	580 ± 10	–	2290 ± 30
CCCCCCCCCCNC(=O)NC1CCCCC1 [compound 153]	100 ± 10	60 ± 10	–
CC(C)c1ccc(NC(=O)NCCc2ccccc2)cc1 [compound 156]	480 ± 10	200 ± 10	–
CCCCCCNC(=O)Nc1ccccc1 [compound 157]	1430 ± 30	850 ± 10	–
CCOC(CNC(=O)Nc1ccc(C(C)C)cc1)OCC [compound 159]	3400 ± 40	590 ± 30	–
CCOC(CCCNC(=O)Nc1cccc(Cl)c1)OCC [compound 167]	3770 ± 30	390 ± 20	–
CCCCCCCCNC(=O)NC1CCCCC1 [compound 168]	120 ± 10	60 ± 10	–
O=C(NCC1CCCCC1)Nc1ccc2ccccc2c1 [compound 169]	130 ± 10	60 ± 10	–
CCCCCCCCNC(=O)Nc1cccc(Cl)c1 [compound 170]	180 ± 10	120 ± 10	–
CCCCCCCCCCNC(=O)Nc1cccc(Cl)c1 [compound 172]	300 ± 10	120 ± 10	–
